Test systems include DU-145; BT-549; HCT-15; NCI-H23; SK-OV-3; HCC 2998; T47D; SF-295; IGROV-1; HL-60; CAKI-1; MDA-MB-231; SNB-19; PC-3; M14; SF-539; Hs-578T; Malme-3M; LOX IMVI.
Common to all, as to experiment: growth of human tumour cells (NCI), 48 h

The structures appear in SMILES notation.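 Where inhibition never reached the appropriate level, the endpoint shown equals the highest concentration tested. Otherwise, values were interpolated linearly from a five-concentration, 48-hour dose response in 96-well plates. GI50: concentration for 50% inhibition of growth.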 Activity calls are given as the source filed them. Rule as the data show it: active = GI50 up to about 1.1 µM and inactive = higher.

`CC(C)(C)OC(=O)N(CCCCNC(=O)OCc1ccccc1)CCCNC(=O)OCc1ccccc1`: the GI50 in the assay on DU-145 is > 100 µM (inactive); in the assay with BT-549, 53 µM (inactive); in the assay on HCT-15 it was over 100 µM; in the assay on NCI-H23, 21.6 µM (inactive); in the assay with SK-OV-3 it was > 100 µM (inactive); in the assay with HCC 2998, 98.6 µM (inactive). The GI50 in the assay with T47D was 5.19 µM (inactive); in the assay with SF-295, 25.9 µM (inactive); with IGROV-1, > 100 µM (inactive); in the assay on HL-60, 5.28 µM (inactive); with CAKI-1, 1.96 µM (inactive); in the assay with MDA-MB-231, 90.2 µM (inactive). The GI50 in the assay with SNB-19 is > 100 µM (inactive); in the assay on PC-3, 10.7 µM (inactive); in the assay on M14 it was 51.8 µM (inactive); in the assay with SF-539 it was > 100 µM (inactive); in the assay with Hs-578T it was > 100 µM (inactive).

For the molecule `Cn1c(S)nc(C(N)=O)c1N`, the GI50 in the assay with DU-145 is > 100 µM (inactive); in the assay on BT-549, > 100 µM (inactive); with HCT-15 it was over 100 µM; in the assay on NCI-H23, > 100 µM (inactive); in the assay on SK-OV-3, > 100 µM (inactive); in the assay on HCC 2998, > 100 µM (inactive). Moreover, the GI50 was 72.4 µM (inactive) with T47D; > 100 µM (inactive) with Malme-3M; > 100 µM (inactive) in the assay with SF-295; > 100 µM (inactive) in the assay with IGROV-1; > 100 µM (inactive) with HL-60; > 100 µM (inactive) in the assay on LOX IMVI. Besides, the GI50 in the assay with MDA-MB-231, in the assay with SNB-19, with PC-3, in the assay with M14, in the assay with SF-539 and with Hs-578T was > 100 µM (inactive) each time.

On to `Cn1c(-c2cccs2)cc(-c2ccsc2)c1-c1cccs1`, for which the GI50 in the assay with DU-145 is 87.1 µM (inactive); in the assay on BT-549, > 100 µM (inactive); with HCT-15, 88.9 µM; with NCI-H23 it was 45.9 µM (inactive); in the assay with SK-OV-3 it was > 100 µM (inactive); with HCC 2998 it was > 100 µM (inactive). Moreover, the GI50 with T47D was 3.04 µM (inactive); in the assay with Malme-3M, > 100 µM (inactive); in the assay on SF-295, > 100 µM (inactive); with IGROV-1 it was > 100 µM (inactive); with CAKI-1, > 100 µM (inactive); in the assay on MDA-MB-231, 99.1 µM (inactive). Besides, the GI50 in the assay with SNB-19 is > 100 µM (inactive); with PC-3 it was > 100 µM (inactive); with M14, 92.3 µM (inactive); in the assay on SF-539, > 100 µM (inactive); in the assay on Hs-578T, 96.4 µM (inactive).

`COC(=O)c1c(C#C[Si](C)(C)C)c(C#C[Si](C)(C)C)c(C#C[Si](C)(C)C)c(C#C[Si](C)(C)C)c1C(=O)OC`: the GI50 with DU-145 is > 100 µM (inactive); with BT-549, > 100 µM (inactive); in the assay with HCT-15 it was over 100 µM; with NCI-H23, > 100 µM (inactive); with SK-OV-3, > 100 µM (inactive); in the assay on HCC 2998, > 100 µM (inactive). Further, the GI50 in the assay on T47D, in the assay on Malme-3M, in the assay with SF-295, in the assay with IGROV-1, in the assay on HL-60 and in the assay with CAKI-1 was > 100 µM (inactive) in each case. Moreover, the GI50 in the assay with MDA-MB-231, in the assay with SNB-19, in the assay with PC-3, in the assay on M14, in the assay on SF-539 and in the assay with Hs-578T was > 100 µM (inactive) each time.

Take `Cc1nc(N)c(N2CCN(Cc3ccccc3)CC2)c(O)n1`: the GI50 in the assay on DU-145 is > 100 µM (inactive); in the assay on BT-549, > 100 µM (inactive); in the assay on HCT-15 it was over 100 µM; in the assay with NCI-H23 it was > 100 µM (inactive); with HCC 2998, > 100 µM (inactive); with T47D it was > 100 µM (inactive). Further, the GI50 in the assay with Malme-3M, in the assay on SF-295, with HL-60, in the assay with LOX IMVI, in the assay with MDA-MB-231 and in the assay with SNB-19 was > 100 µM (inactive) each time. The GI50 with PC-3, with M14, with SF-539 and in the assay with Hs-578T was > 100 µM (inactive) each time.

With `CC1(C)OCC([C@H]2O[C@@H](CC(=S)NCCCCCCCCCCCCNC(=S)C[C@H]3O[C@@H](C4COC(C)(C)O4)[C@H]4OC(C)(C)O[C@H]43)[C@H]3OC(C)(C)O[C@H]32)O1` (some centres undefined), the GI50 in the assay with DU-145 was > 100 µM (inactive); in the assay on BT-549, 35 µM (inactive); with HCT-15 it was 73.1 µM; with NCI-H23, 30.7 µM (inactive); in the assay on HCC 2998 it was 75.7 µM (inactive); in the assay with T47D it was 19.2 µM (inactive). For the same molecule, the GI50 in the assay on SF-295 is 31.6 µM (inactive); in the assay on IGROV-1, > 100 µM (inactive); in the assay with HL-60, 30.4 µM (inactive); in the assay on LOX IMVI, 79.1 µM (inactive); in the assay with CAKI-1, 17.5 µM (inactive); with MDA-MB-231 it was > 100 µM (inactive). Besides, the GI50 in the assay with PC-3 is 25.5 µM (inactive); in the assay with M14, 52.5 µM (inactive); in the assay on SF-539, 57.9 µM (inactive); in the assay on Hs-578T it was > 100 µM (inactive).

Consider `Cn1ccnc1SC(F)(F)c1nc2ccccc2o1`, for which the GI50 in the assay with DU-145 is > 100 µM (inactive); in the assay on BT-549 it was 46.5 µM (inactive); in the assay with HCT-15, over 100 µM; with NCI-H23, > 100 µM (inactive); in the assay on SK-OV-3, > 100 µM (inactive); with HCC 2998, > 100 µM (inactive). Besides, the GI50 in the assay with T47D, in the assay on Malme-3M, in the assay on SF-295, in the assay with IGROV-1, in the assay with CAKI-1 and with MDA-MB-231 was > 100 µM (inactive) each time. For the same molecule, the GI50 with PC-3, with M14, in the assay on SF-539 and in the assay on Hs-578T was > 100 µM (inactive) each time.

As for `Cc1c2c(nc3ccccc13)C(=O)c1cccnc1C2=O`, the GI50 in the assay on DU-145 is 21.6 µM (inactive); in the assay with BT-549, 61.8 µM (inactive); in the assay with HCT-15, 10.9 µM; with NCI-H23 it was 6.46 µM (inactive); with SK-OV-3 it was > 100 µM (inactive); in the assay with HCC 2998, 7.62 µM (inactive). Moreover, the GI50 was 26.7 µM (inactive) in the assay on T47D; 1.29 µM (inactive) in the assay with Malme-3M; 12.4 µM (inactive) in the assay on SF-295; 17.8 µM (inactive) in the assay with IGROV-1; 15.1 µM (inactive) with HL-60; 10.7 µM (inactive) with LOX IMVI. Moreover, the GI50 is 8.34 µM (inactive) in the assay with MDA-MB-231; 16.3 µM (inactive) with SNB-19; 24.3 µM (inactive) in the assay on PC-3; 6.52 µM (inactive) in the assay with M14; 5.41 µM (inactive) with SF-539; 33.5 µM (inactive) with Hs-578T.

As to `O=C(O)CCC(=O)OC1N=C(c2ccccc2Cl)c2cc([N+](=O)[O-])ccc2NC1=O` (centres undefined), the GI50 with DU-145 was > 100 µM (inactive); with BT-549, 89.1 µM (inactive); with HCT-15, 36.7 µM; in the assay with NCI-H23, > 100 µM (inactive); in the assay on SK-OV-3 it was > 100 µM (inactive); in the assay with HCC 2998, > 100 µM (inactive). Further, the GI50 with T47D was 81.3 µM (inactive); with Malme-3M, > 100 µM (inactive); in the assay on SF-295, > 100 µM (inactive); with IGROV-1, 95.9 µM (inactive); in the assay with HL-60, 38.5 µM (inactive); in the assay with LOX IMVI, 85.7 µM (inactive). The GI50 with CAKI-1 is > 100 µM (inactive); with MDA-MB-231, > 100 µM (inactive); in the assay with SNB-19, > 100 µM (inactive); with PC-3, 23.6 µM (inactive); with M14 it was > 100 µM (inactive); with Hs-578T, > 100 µM (inactive).

For the molecule `O=C1Nc2ccc([N+](=O)[O-])cc2/C1=N/NC(=S)Nc1ccccc1`, the GI50 is 11.8 µM (inactive) with DU-145; 3.88 µM (inactive) with BT-549; 3.03 µM in the assay with HCT-15; 9.33 µM (inactive) in the assay on NCI-H23; 14 µM (inactive) in the assay on SK-OV-3; 3.6 µM (inactive) with HCC 2998. Further, the GI50 in the assay with T47D was 4.71 µM (inactive); with SF-295, 4.34 µM (inactive); in the assay on IGROV-1, 1.41 µM (inactive); in the assay with HL-60, 5.21 µM (inactive); in the assay on LOX IMVI, 9.46 µM (inactive); in the assay on CAKI-1, 3.53 µM (inactive). Further, the GI50 was 12.3 µM (inactive) with MDA-MB-231; 5.35 µM (inactive) in the assay with SNB-19; 5.5 µM (inactive) with PC-3; 6.01 µM (inactive) in the assay on M14; 12 µM (inactive) in the assay with SF-539; 35.7 µM (inactive) in the assay on Hs-578T.

Take `CCN1/C(=C/C#C/C(C)=C\c2sc3ccc(Cl)cc3[n+]2CC)Sc2ccc(Cl)cc21`: the GI50 was 3.68 µM (inactive) in the assay with DU-145; 2.14 µM (inactive) in the assay on BT-549; 4.61 µM with HCT-15; 5.55 µM (inactive) with SK-OV-3; 4.07 µM (inactive) with HCC 2998; 2.9 µM (inactive) in the assay on T47D. In addition, the GI50 was 1.85 µM (inactive) with Malme-3M; 3.4 µM (inactive) in the assay with SF-295; 4 µM (inactive) in the assay on IGROV-1; 3.31 µM (inactive) in the assay with LOX IMVI; 2.82 µM (inactive) in the assay with CAKI-1; 5.93 µM (inactive) with MDA-MB-231. The GI50 was 4.09 µM (inactive) in the assay with SNB-19; 2.33 µM (inactive) in the assay on PC-3; 3.62 µM (inactive) in the assay with M14; 3.57 µM (inactive) in the assay with SF-539; 4.72 µM (inactive) with Hs-578T.

The record behind these values is ChEMBL document CHEMBL1201862, “PubChem BioAssay data set” (2004).
